The subject of one series is U87MG. Description: CellTiter-Glo cell proliferation assay, U87MG. It is filed as cell-based, human. To be noted: U87MG, Table 12; for pIC50: Homo sapiens, U-87 MG; for Bottom / Hill Slope / Top: curve fit. The method, then:
(§1) CellTiter-Glo® Luminescent Cell Viability assay (with Promega CellTiter 96® Luminescent CellTiter-Glo® kit) was used to study the proliferation inhibition by test compounds. Compounds were resuspended in DMSO to make a 25 mM stock suspension. Cells of cancer cell lines or normal tissues were seeded in 96-well plates at 1,500 to 5,000 cells/well overnight. Compounds were 2- or 3-fold diluted serially to obtain 10 concentrations. Then, the drugs were added to the cell wells by Bravo (Agilent) and incubated for 72 hours. The cells were lysed by adding CellTiter-Glo® Reagent (per manufacturer's instructions) and subsequently, the luminescence was read using EnVision® (PerkinElmer).
(§2) The percent of growth was calculated as follows. DMSO-treated cells were employed as vehicle control (High control, HC) and culture medium alone was employed as background (Low control, EC). % growth=100×(Lum sample−Lum EC)/(Lum HC−Lum EC). The ICso was calculated by concentration-response curve fitting using Graphpad Prism.
(§3) Hematological cancer cell lines tested included OCI-AML3, MV-4-11, KG-1, Kasumi-1, K562, THP-1; solid cancer cell lines tested included U87MG, U251, T98G, LN229, A172, H460, H2009, A549; normal cell lines tested included HCN2 and 3T3-L1. […] However, they were not toxic to in vitro cultured normal cells.

The subject of the next series is T98G. Description: CellTiter-Glo cell proliferation assay, T98G. It is filed as cell-based. To be noted: Table 11, read-out: Absolute IC50 (μM) T98G. The method, then:
as §1, §2, §3

For the next series, the system named is LN-229. Description: CellTiter-Glo cell proliferation assay, LN-229. It is filed as cell-based. To be noted: Table 11, read-out: Absolute IC50 (μM) LN-229. The method, then: as §1, §2, §3
The next series deals with U251. Description: CellTiter-Glo cell proliferation assay, U251. To be noted: Table 11, read-out: Absolute IC50 (μM) U251. It is filed as cell-based. As for the experimental part:
as §1, §2, §3
For orientation: In ATP-based viability assays light output follows the ATP content of the culture.

The target in series [1] is T1, XPO1 (Homo sapiens, UniProt O14980). As to the kind of experiment: REV-GFP translocation assay in U2OS cells. To be noted: for pEC50: 1 h. Also on record: endogenous in cells; host or cells: U2OS cells stably expressing REV-GFP (clones from HD Biosciences). It is filed as cell-based. The method, then: LTD in China, and cells were cultured with growth medium. […] The highest Leptomycin B (LMB) concentration was set to 50 nM and serially diluted as the positive control, while the highest concentrations of other compounds were set to 10 μM. The cells treated with various drugs or DMSO, were incubated at 37° C. and 5% CO2 for 1 h. Then, cells were fixed with 4% formaldehyde for 15 min at room temperature. The cells were washed and stained with 100 μL Hoechst 33342 working solution for 10 min at room temperature in dark, after which the cell fluorescence was imaged with the High-Content Imaging System, ImageXpress® (Molecular Devices) using the 20× objective. The filters were set for Hoechst (350/461 nm) and GFP/FITC (488/509 nm) (wavelength for excitation and emission maxima). The % effect of REV nuclear translocation was calculated with the following formula: % effect=([…]- signals from testing compounds; ILMB-signals of 50 nM LMB group; ICTRL-signals of vehicle control group.
T1 sequence (O14980 whole entry): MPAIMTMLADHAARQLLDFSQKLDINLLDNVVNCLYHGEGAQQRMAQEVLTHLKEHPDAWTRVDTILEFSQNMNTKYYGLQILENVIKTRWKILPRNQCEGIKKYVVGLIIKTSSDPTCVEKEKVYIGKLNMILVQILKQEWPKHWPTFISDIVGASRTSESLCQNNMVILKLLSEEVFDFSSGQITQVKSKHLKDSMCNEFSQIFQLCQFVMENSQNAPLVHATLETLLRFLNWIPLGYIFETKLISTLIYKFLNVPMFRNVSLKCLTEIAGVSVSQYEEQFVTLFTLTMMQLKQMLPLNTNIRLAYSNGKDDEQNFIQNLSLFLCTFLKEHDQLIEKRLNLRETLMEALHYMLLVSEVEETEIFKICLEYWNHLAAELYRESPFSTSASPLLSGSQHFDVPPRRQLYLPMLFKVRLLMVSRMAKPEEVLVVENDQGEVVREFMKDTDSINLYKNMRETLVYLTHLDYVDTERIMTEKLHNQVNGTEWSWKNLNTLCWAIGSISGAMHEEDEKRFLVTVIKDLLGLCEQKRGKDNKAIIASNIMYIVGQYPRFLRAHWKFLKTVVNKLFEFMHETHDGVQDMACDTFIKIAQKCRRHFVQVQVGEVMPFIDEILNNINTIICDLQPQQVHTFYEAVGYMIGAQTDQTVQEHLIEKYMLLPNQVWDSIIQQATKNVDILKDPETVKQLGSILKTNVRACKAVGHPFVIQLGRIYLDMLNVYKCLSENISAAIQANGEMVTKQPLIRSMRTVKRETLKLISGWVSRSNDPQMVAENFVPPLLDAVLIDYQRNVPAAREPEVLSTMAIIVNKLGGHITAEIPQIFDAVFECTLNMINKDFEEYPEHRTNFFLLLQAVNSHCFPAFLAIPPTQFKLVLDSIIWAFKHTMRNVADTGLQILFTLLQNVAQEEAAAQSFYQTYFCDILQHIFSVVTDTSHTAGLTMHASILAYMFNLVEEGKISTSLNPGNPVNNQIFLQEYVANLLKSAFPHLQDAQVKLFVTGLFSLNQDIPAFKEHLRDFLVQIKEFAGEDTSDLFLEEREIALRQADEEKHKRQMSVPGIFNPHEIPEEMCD

Series [2] deals with T1, XPO1. As to the kind of experiment: Compound washout assay in REV-GFP cells. As for the experimental part:
In order to evaluate the duration of XPO1 inhibition by test compounds on XPO1 protein after washout, washout assay was performed using REV-GFP cells. The test compounds and positive control were added to the cell well, and the plate was incubated the at 37° C. and 5% CO2 for 1 h. The drug-containing media were removed, the cells were washed, and the fresh media were added. The cells were imagined at the specified time points 0, 4, 24, 48, 72, and 96 hours to evaluate the inhibition of REV nuclear export. […] 4A. […] 4B. […] 4C.

Each structure is given as a SMILES string. pEC50, pIC50: −log10 of the molar value. Like-named read-outs stand apart in the source and are kept apart here.

As to `CCCC(=O)NNC(=O)/C=C\n1cnc(-c2cc(C(F)(F)F)cc(S(F)(F)(F)(F)F)c2)n1` [Compound IX, (Z)—N′-(3-(3-(3-(Pentafluorosulfaneyl)-5-(trifluoromethyl)phenyl)-1H-1,2,4-triazol-1-yl)acryloyl)butyrohydrazide], the pIC50 with U87MG (read-out: Relative IC50) was 7.00. For the same compound, in the series with U87MG, the “Max % Inhibition” value stood at 48.3%, the Bottom was −4.6, the “Hill Slope” value is 1.6 and the Top came to 43.6.
In the case of `N.N.[Cl][Pt][Cl]` [Cisplatin, reference compound], the IC50 with T98G worked out at 12.3 µM; in the series on LN-229, 13 µM; in the series with U251, 6 µM.
With `CC1(C(=O)NNC(=O)/C=C\n2cnc(-c3cc(C(F)(F)F)cc(S(F)(F)(F)(F)F)c3)n2)CC1` [Compound XI, (Z)-1-Methyl-N′-(3-(3-(3-(pentafluorosulfaneyl)-5-(trifluoromethyl)phenyl)-1H-1,2,4-triazol-1-yl)acryloyl)cyclopropane-1-carbohydrazide], the pIC50 in the series on U87MG (read-out: Relative IC50) was 6.70. For the same compound, in the series with U87MG, the “Max % Inhibition” value is given as 48.5%, the Bottom is −7.6, the “Hill Slope” value was found to be 1.8 and the Top turned out to be 44.6.
Regarding `O=C(/C=C\n1cnc(-c2cc(C(F)(F)F)cc(S(F)(F)(F)(F)F)c2)n1)NNc1nccs1` [Compound VI, (Z)-3-(3-(3-(Pentafluorosulfaneyl)-5-(trifluoromethyl)phenyl)-1H-1,2,4-triazol-1-yl)-N′-(thiazol-2-yl)acrylohydrazide], the IC50 in the series on T98G (Homo sapiens, T98G) is 2.6 µM; in the series with LN-229 (Homo sapiens, LN-229), 1.7 µM; with U251 (Homo sapiens, U-251), 3.8 µM. Besides, the pEC50 at XPO1 [1] (REV-EGFP U2OS cells, Table 2, read-out: Rev-GFP/EC50) is 7.60. On XPO1 [1] (Table 10, first (or only) value of the cell), this compound had a pIC50 of 7.60.
In the case of `O=C(/C=C\n1cnc(-c2cc(C(F)(F)F)cc(S(F)(F)(F)(F)F)c2)n1)NNC(=O)C1CCC1` [Compound X, (Z)—N′-(3-(3-(3-(Pentafluorosulfaneyl)-5-(trifluoromethyl)phenyl)-1H-1,2,4-triazol-1-yl)acryloyl)cyclobutanecarbohydrazide], the pIC50 in the series on U87MG (read-out: Absolute IC50) was 5.03. For the same compound, the pIC50 with U87MG (read-out: Relative IC50) is 6.70. In the series on U87MG, the “Max % Inhibition” value was determined as 58.3%, the Bottom is recorded as −15.9, the “Hill Slope” value is listed as 0.5 and the Top came to 59.4.
As to `O=C(/C=C\n1cnc(-c2cc(C(F)(F)F)cc(S(F)(F)(F)(F)F)c2)n1)NNC(=O)C1CC1` [Compound VII, (Z)—N′-(3-(3-(3-(Pentafluorosulfaneyl)-5-(trifluoromethyl)phenyl)-1H-1,2,4-triazol-1-yl)acryloyl)cyclopropanecarbohydrazide], the pIC50 with U87MG (read-out: Relative IC50) was 7.00. Moreover, in the series with U87MG, the “Max % Inhibition” value turned out to be 49.0%, the Bottom is −6.4, the “Hill Slope” value is listed as 1.2 and the Top was found to be 45.9.
In the case of `CC(CO)(CCl)C(=O)NNC(=O)/C=C\n1cnc(-c2cc(C(F)(F)F)cc(S(F)(F)(F)(F)F)c2)n1` (centres unmarked) [Compound XII, (Z)—N′-(3-Chloro-2-(hydroxymethyl)-2-methylpropanoyl)-3-(3-(3-(pentafluorosulfaneyl)-5-(trifluoromethyl)phenyl)-1H-1,2,4-triazol-1-yl)acrylohydrazide], the pIC50 with U87MG (read-out: Absolute IC50) is 4.73. In addition, the pIC50 in the series with U87MG (read-out: Relative IC50) is 6.22. Besides, in the series with U87MG, the “Max % Inhibition” value was 53.9%, the Bottom was −5.5, the “Hill Slope” value is recorded as 1.2 and the Top came out at 50.9.
As for `CCC(=C/[C@H](C)C/C=C/C(C)=C/[C@@H](C)C(=O)[C@@H](C)[C@H](O)[C@@H](C)C/C(C)=C/C(=O)O)/C=C/[C@@H]1OC(=O)C=C[C@@H]1C` [LMB, Leptomycin B, reference compound], the “sustained retention of REV protein in the nucleus post washout” value on XPO1 [2] (50 nM, 1 h treatment then washout) is “up to 24 hours”. For the same compound, the “effect on retention of REV protein in the nucleus” value on XPO1 [2] (50 nM, 72 hours post washout) came out at 30%. Further, the “toxicity / cell number compared to the control” value at XPO1 [2] (washout assay) was “showed toxicity”. Also, the pEC50 on XPO1 [1] (Rev-GFP-U2OS cells, FIG. 1B, read-out: EC50 in the Rev redistribution) was 9.96.
As for `CC(C)(C)C(=O)NNC(=O)/C=C\n1cnc(-c2cc(C(F)(F)F)cc(C(F)(F)F)c2)n1` [KPT-350, (Z)-3-(3-(3,5-bis(trifluoromethyl)phenyl)-1H-1,2,4-triazol-1-yl)-N′-pivaloylacrylohydrazide, reference compound], the pIC50 in the series with U87MG (read-out: Absolute IC50) was 5.00. The pIC50 with U87MG (read-out: Relative IC50) was 6.52. Moreover, in the series with U87MG, the “Max % Inhibition” value was determined as 49.4%, the Bottom is given as −13.2, the “Hill Slope” value is 0.8 and the Top was 53.0.
For `CC(C)C(=O)NNC(=O)/C=C\n1cnc(-c2cc(C(F)(F)F)cc(S(F)(F)(F)(F)F)c2)n1` [Compound VIII, (Z)—N′-Isobutyryl-3-(3-(3-(pentafluorosulfaneyl)-5-(trifluoromethyl)phenyl)-1H-1,2,4-triazol-1-yl)acrylohydrazide], the pIC50 with U87MG (read-out: Relative IC50) is 7.00. Also, in the series on U87MG, the “Max % Inhibition” value worked out at 44.0%, the Bottom is −10.6, the “Hill Slope” value is 1.8 and the Top was found to be 38.8.

What is called pIC50 is the negative decadic logarithm of the IC50, by convention in mol/L. In general, IC50 refers to the midpoint of a concentration-inhibition curve.

Source of the values: patent US11767313B2, “Compounds as nuclear transport modulators and uses thereof” (XWPHARMA LTD., priority 2018, dated 2023).
